Where two headings read alike, the source gives them in different places.
Tests used:
SK-N-BE(2c) (NET ++++) = assay: cells; format: cell-based
MCF7 (NET 0) = assay: in vitro; format: cell-based, human
SK—N-BE(2c) (high NET) = assay: Glutathione depletion in vitro, SK-N-BE(2c); format: cell-based
Experimental: The NB cell line SK—N-BE(2c) (high net) was treated with MIBG, MIBG-disulfide dimer (MIGB-S—S-MIBG), chloromethyl-MIBG (cmMIBG), and BSO. For comparison, the human breast cancer line MCF7 (no NET) was treated with chloromethyl-MIBG and BSO. At specific times, intracellular glutathione in drug-treated cells was determined relative to that in untreated cells (control).
SK—N-BE(2c) (high NET) cells were treated with a single concentration of chloromethyl-MIBG (25 μM at t=0). Glutathione concentrations in treated and untreated cells were measured at t=0.5, 1, 2, 3 and 4 hrs. Glutathione levels in drug-treated cells progressively fell, with a concentration 50% that of control at t 4 hrs (FIG. 10B).
Cells were exposed to 5 μM chloromethyl-MIBG (cmMIBG), 25 μM BSO and a combination of 5 μM chloromethyl-MIBG+25 μM BSO (both) for 7 hrs. Compared to controls, chloromethyl-MIBG alone depleted glutathione by about 30% in SK—N—Be(2c) cells and 8% in MCF7. BSO, as expected, depleted MCF7 and SK—N—Be(2c) by similar amounts (42 and 54% of controls, respectively). In combination studies, chloromethyl-MIBG+BSO depleted levels by about 85% in the SK—N—Be(2c) cells and had much less effect on the MCF7 cells with glutathione reduced by 49% relative to controls.

in vitro = format: cell-based, human; conditions: human; for IC50 at 24 h: 24 hr assay
SK-N-SH (NET ++) = assay: Cytotoxicity, MTT assay, SK-N-SH; format: cell-based; conditions: Homo sapiens, SK-N-SH
[1] = (101×C3H)F1 male mice, cited from earlier work
NET = biological target: T1, NET (Homo sapiens, UniProt P23975); assay: NET competitive binding assay ([125I]MIBG displacement, SK-N-SH cells); conditions: 5 μM test compound, 2 hr incubation
T1 construct: endogenous in cells; host or cells: SK-N-SH neuroblastoma cells
Experimental: An assay to assess binding of various MIBG-analogs to the NET was performed by published methods (Vaidynathan et al, Nucl. Med. Commun. 25:947-955 (2004), Vaidynathan et al, Bioorg. Med. Chem. 12:1649-1656 (2004), Vaidynathan et al, Bioconjugate Chem. 12:798-806 (2001), Vaidynathan et al, Eur. J. Nucl. Med. Mol. Imaging 31:1362-1370 (2004)). In brief, neuroblastoma SK—N—SH cells (moderate levels of NET) were treated with [^125I]MIBG and with increasing concentrations of unlabeled MIBG or MIBG-analogs. At the end of a 2 hr incubation and appropriate work-up, the cell-bound radioactivity was counted. Total cell-bound radioactivity minus non-specific cell-bound radioactivity gave a value for specific binding which was plotted in FIG. 9 against the concentration of test compounds. At 5 μM, cold MIBG displaced “100%” of the labeled-MIBG (i.e., “zero” cell-bound radioactivity). At 5 μM, chloromethyl-MIBG displaced 83%; the disulfide MIBG-SS-ethyl and the ester MIBG-phenylbutyrate displaced 50-55%; and hydroxymethyl-MIBG displaced 27%.

[2] = 48 hr assay (24 h exposure + 24 h recovery), Table 3, read-out: Cytotoxicity IC50
[3] = single agent, 1% DMSO, read-out: Cytotoxicity IC50

T1 sequence (P23975 whole entry): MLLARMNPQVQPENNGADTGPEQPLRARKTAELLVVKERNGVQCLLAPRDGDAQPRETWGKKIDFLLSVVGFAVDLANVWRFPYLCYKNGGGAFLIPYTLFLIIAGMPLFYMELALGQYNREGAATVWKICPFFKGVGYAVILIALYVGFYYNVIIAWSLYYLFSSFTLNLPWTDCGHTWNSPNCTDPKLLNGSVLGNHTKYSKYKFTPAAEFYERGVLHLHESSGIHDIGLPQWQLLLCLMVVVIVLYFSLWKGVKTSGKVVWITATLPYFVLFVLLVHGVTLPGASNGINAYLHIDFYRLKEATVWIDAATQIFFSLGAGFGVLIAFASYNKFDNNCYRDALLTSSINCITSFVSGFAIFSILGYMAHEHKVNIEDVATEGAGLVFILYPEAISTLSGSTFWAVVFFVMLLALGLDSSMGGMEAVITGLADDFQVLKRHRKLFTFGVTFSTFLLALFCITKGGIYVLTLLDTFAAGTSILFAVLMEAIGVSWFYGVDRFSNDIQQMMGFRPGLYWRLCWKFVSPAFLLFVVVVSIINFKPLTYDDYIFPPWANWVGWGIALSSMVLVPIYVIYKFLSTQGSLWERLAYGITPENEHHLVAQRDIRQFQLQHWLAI

Structure (SMILES): N=C(N)NCc1ccc(CSC[C@H](NC(=O)CC[C@H](N)C(=O)O)C(=O)NCC(=O)O)c(I)c1 [MIBG-S-Glutathione]
- IC50 (SK-N-BE(2c) (NET ++++)): 390 µM
- IC50 (MCF7 (NET 0)): > 1000 µM

Structure (SMILES): CCSSCc1ccc(CNC(=N)N)cc1I [MIBG-SS-ethyl]
- IC50 (SK-N-BE(2c) (NET ++++); [2]): 27.4 ± 4.09 µM
- IC50 (MCF7 (NET 0); [2]): 24.2 ± 7.21 µM

Structure (SMILES): N=C(N)NCc1ccc(CSSCc2ccc(CNC(=N)N)cc2I)c(I)c1 [MIBG-disulfide dimer]
- effect on glutathione levels (SK—N-BE(2c) (high NET); 5 μM): a transient loss of glutathione was observed
- time for glutathione to return to pre-treatment levels (SK—N-BE(2c) (high NET); 5 μM): ≤ 8 h
- effect on glutathione levels and cell viability (SK—N-BE(2c) (high NET); higher concentrations (25 and 100 microM), up to 8 hrs): extensive loss of glutathione and cell viability with no recovery

Structure (SMILES): N[C@@H](Cc1ccc(N(CCCl)CCCl)cc1)C(=O)O [Melphalan]
- IC50 (SK-N-BE(2c) (NET ++++); SK-N-BE(2)-C, 24 h, read-out: Cytotoxicity IC50, 24 hr assay, single agent, 1% DMSO): 36.2 ± 5.2 µM
- IC50 (SK-N-BE(2c) (NET ++++); SK-N-BE(2)-C, 24 h, read-out: Cytotoxicity IC50 of melphalan, 24 hr assay, + 5 μM MIBG): 43.5 ± 7 µM
- IC50 (SK-N-BE(2c) (NET ++++); SK-N-BE(2)-C, 24 h, read-out: Cytotoxicity IC50 of melphalan, 24 hr assay, + 5 μM cmMIBG (Table 2D)): 11.3 ± 5.4 µM
- IC50 (SK-N-BE(2c) (NET ++++); SK-N-BE(2)-C, 24 h, read-out: Cytotoxicity IC50 of melphalan, competition experiment, 24 hr assay, + 5 μM cmMIBG + 5 μM MIBG): 22.9 µM
- IC50 (SK-N-BE(2c) (NET ++++); SK-N-BE(2)-C, 24 h, read-out: Cytotoxicity IC50 of melphalan, competition experiment, 24 hr assay, + 5 μM cmMIBG plus vehicle (no MIBG)): 8.1 µM
- IC50 (SK-N-BE(2c) (NET ++++); SK-N-BE(2)-C, 48 h, read-out: Cytotoxicity IC50, 48 hr assay, single agent, Table 4): 25.8 ± 3.5 µM
- IC50 (SK-N-BE(2c) (NET ++++); SK-N-BE(2)-C, 48 h, read-out: Cytotoxicity IC50 of melphalan, 48 hr assay, + 1 μM cmMIBG added at same time): 13.9 ± 4.7 µM
- IC50 (SK-N-BE(2c) (NET ++++); SK-N-BE(2)-C, 48 h, read-out: Cytotoxicity IC50 of melphalan, 48 hr assay, + 5 μM cmMIBG added at same time): 7.3 ± 1.3 µM
- IC50 (SK-N-BE(2c) (NET ++++); SK-N-BE(2)-C, read-out: Cytotoxicity IC50, 48 hr assay (24 h exposure + 24 h recovery), Table 3): 25.8 ± 3.54 µM
- IC50 (SK-N-BE(2c) (NET ++++); SK-N-BE(2)-C, read-out: Cytotoxicity IC50 of melphalan, 48 hr assay, cells treated with 1 μM cmMIBG for 3 hrs, then melphalan added): 14 ± 3.7 µM
- IC50 (SK-N-BE(2c) (NET ++++); SK-N-BE(2)-C, read-out: Cytotoxicity IC50 of melphalan, 48 hr assay, cells treated with 5 μM cmMIBG for 3 hrs, then melphalan added): 10.2 ± 0.9 µM
- IC50 at 24 h (in vitro; + 5 μM MIBG, read-out: Cytotoxicity IC50 of melphalan): 386 ± 181 µM
- IC50 at 24 h (in vitro; + 5 μM cmMIBG (Table 2D), read-out: Cytotoxicity IC50 of melphalan): 276 ± 28 µM
- IC50 at 24 h (in vitro; [3]): 250 ± 112 µM
- IC50 at 48 h (in vitro; [2]): 126 ± 28 µM
- IC50 at 48 h (in vitro; 48 hr assay, + 1 μM cmMIBG added at same time, read-out: Cytotoxicity IC50 of melphalan): 127 ± 17 µM
- IC50 at 48 h (in vitro; 48 hr assay, + 5 μM cmMIBG added at same time, read-out: Cytotoxicity IC50 of melphalan): 75 ± 25 µM
- IC50 at 48 h (in vitro; 48 hr assay, cells treated with 1 μM cmMIBG for 3 hrs, then melphalan added, read-out: Cytotoxicity IC50 of melphalan): 60 ± 7 µM
- IC50 at 48 h (in vitro; 48 hr assay, cells treated with 5 μM cmMIBG for 3 hrs, then melphalan added, read-out: Cytotoxicity IC50 of melphalan): 43 ± 11 µM
- IC50 at 48 h (in vitro; 48 hr assay, single agent, Table 4, read-out: Cytotoxicity IC50): 126 ± 28 µM
- IC50 (SK-N-SH (NET ++); 48 h, read-out: Cytotoxicity IC50, 48 hr assay, single agent, Table 4): 54.1 ± 13.8 µM
- IC50 (SK-N-SH (NET ++); 48 h, read-out: Cytotoxicity IC50 of melphalan, 48 hr assay, + 1 μM cmMIBG added at same time): 36.7 ± 18.7 µM
- IC50 (SK-N-SH (NET ++); 48 h, read-out: Cytotoxicity IC50 of melphalan, 48 hr assay, + 5 μM cmMIBG added at same time): 29.9 ± 10.6 µM
- IC50 (SK-N-SH (NET ++); read-out: Cytotoxicity IC50, 48 hr assay (24 h exposure + 24 h recovery), Table 3): 54.1 ± 13.8 µM
- IC50 (SK-N-SH (NET ++); read-out: Cytotoxicity IC50 of melphalan, 48 hr assay, cells treated with 1 μM cmMIBG for 3 hrs, then melphalan added): 29.8 ± 4.8 µM
- IC50 (SK-N-SH (NET ++); read-out: Cytotoxicity IC50 of melphalan, 48 hr assay, cells treated with 5 μM cmMIBG for 3 hrs, then melphalan added): 38.4 ± 7.7 µM
- death rate ([1]; 20 mg/kg single injection i.p., by one week): 100%
- MTD ([1]; single injection, i.p.): 10 to 15 mg/kg

Structure (SMILES): ClCc1ccccc1 [chloromethyl-benzene, benzylchloride]
- IC50 (SK-N-BE(2c) (NET ++++); 24 hr assay, single agent, 1% DMSO, read-out: Cytotoxicity IC50): 172 ± 31 µM
- IC50 at 24 h (in vitro; [3]): 390 ± 77 µM

Structure (SMILES): N=C(N)NCc1ccc(CO)c(I)c1 [hydroxymethyl-MIBG]
- displacement of [125I]MIBG (specific cell-bound radioactivity) (NET): 27%

Reference: patent US20100104628A1, “METHOD OF TREATING NEUROBLASTOMA” (priority 2007, published 2010)
